Test results as given in US8921398B2 (Boehringer Ingelheim International GmbH, priority 2011, dated 2014).

Molecular target: T1, human GPR119 (Homo sapiens, UniProt Q8TDV5)
T1 construct: expression vector for human GPR119 cDNA (Acc. No. NP_848566); expressed in transfected cells
T1 sequence (Q8TDV5 1-335): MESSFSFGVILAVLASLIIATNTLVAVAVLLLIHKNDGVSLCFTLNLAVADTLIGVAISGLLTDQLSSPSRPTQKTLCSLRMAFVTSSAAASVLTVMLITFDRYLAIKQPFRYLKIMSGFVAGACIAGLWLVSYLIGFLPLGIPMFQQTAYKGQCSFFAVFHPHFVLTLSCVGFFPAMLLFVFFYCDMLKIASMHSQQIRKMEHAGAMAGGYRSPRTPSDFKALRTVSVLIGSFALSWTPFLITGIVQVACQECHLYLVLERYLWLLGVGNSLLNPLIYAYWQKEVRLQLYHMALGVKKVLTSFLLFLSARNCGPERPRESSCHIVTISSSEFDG
Test: AlphaScreen cAMP assay in MIN6 cells stably transfected with human GPR119
Type: cell-based
Conditions: Min-6/hGPR119 cells, 45 minutes incubation at room temperature
Procedure: The compounds of formula I according to the invention modulate the activity of the G-protein-coupled receptor GPR119. The effect of the compounds on the activation of GPR119 and on the stimulation of intracellular cAMP concentration is determined using the AlphaScreen cAMP Assay Kit (Cat.No.#6760625R) made by PerkinElmer.
MIN6 cells [Miyazaki J et al. Endocrinology. 1990 July; 127(1):126-32] are stably transfected with an expression vector for human GPR119 cDNA (Acc. No. NP_848566). Min-6/hGPR119 cells are cultured in DMEM, 10% FBS, 50 μM β-mercaptoethanol, 0.3 mg/mL Geniticin, 2 mM GlutaMAX at 37° C. 5% CO2. For the assay, the cells are seeded in Optiplates (white, 384-well, 160W-barcoded, TC, sterile with lid, Cat.No.#6007688 (Perkin Elmer); 10000 cells/well; 50 μl). The plates covered with lids are then incubated for 24 hours at 37° C./5% CO2. After the medium is aspirated from the wells completely, 10 μl of the test compound are added, the compounds are diluted using stimulating buffer (140 mM NaCl, 3.6 mM KCl, 0.5 mM NaH2PO4, 0.5 mM MgSO4, 1.5 mM CaCl2, 10 mM Hepes, 5 mM NaHCO3; pH 7.4. 0.5 mM IBMX and 0.1% BSA, the final DMSO concentration is 1%). After 45 minutes incubation at room temperature (approx. 20° C.), the cAMP concentrations are determined using the AlphaScreen cAMP Assay Kit (Cat.No.#6760625R from PerkinElmer).

Structure (SMILES) | EC50
CCc1cnc(N2CCC(N(C(=O)c3cnc(-n4ccnc4C)nc3)C3CC3)CC2)nc1 [Example 14, 2-(2-Methyl-imidazol-1-yl)-pyrimidine-5-carboxylic acid cyclopropyl-[1-(5-ethyl-pyrimidin-2-yl)-piperidin-4-yl]-amide] | 21 nM
CCc1cnc(N2CCC(N(C(=O)c3cnc(-n4ccnc4CC)nc3)C3CC3)CC2)nc1 [Example 15, 2-(2-Ethyl-imidazol-1-yl)-pyrimidine-5-carboxylic acid cyclopropyl-[1-(5-ethyl-pyrimidin-2-yl)-piperidin-4-yl]-amide] | 60 nM
CCCc1noc(N2CCC(N(C(=O)c3cnc(-c4ccc(S(C)(=O)=O)cc4)nc3)C3CC3)CC2)n1 [Example 16, 2-(4-Methanesulfonyl-phenyl)-pyrimidine-5-carboxylic acid cyclopropyl-[1-(3-propyl-[1,2,4]oxadiazol-5-yl)-piperidin-4-yl]-amide] | 159 nM
CCc1cnc(N2CCC(N(C(=O)c3ccc(-n4ccnc4)nn3)C3CC3)CC2)nc1 [Example 17, 6-Imidazol-1-yl-pyridazine-3-carboxylic acid cyclopropyl-[1-(5-ethyl-pyrimidin-2-yl)-piperidin-4-yl]-amide] | 964 nM
CCCc1noc(N2CCC(N(C(=O)c3noc(-c4ccc(C#N)cc4F)n3)C3CC3)CC2)n1 [Example 18, 5-(4-Cyano-2-fluoro-phenyl)-[1,2,4]oxadiazole-3-carboxylic acid cyclopropyl-[1-(3-propyl-[1,2,4]oxadiazol-5-yl)-piperidin-4-yl]-amide] | 7 nM
Cc1cnc(N2CCC(N(C(=O)c3cnc(-n4ccnc4C)nc3)C3CC3)CC2)cn1 [Example 19, 2-(2-Methyl-imidazol-1-yl)-pyrimidine-5-carboxylic acid cyclopropyl-[1-(5-methyl-pyrazin-2-yl)-piperidin-4-yl]-amide] | 97 nM
CS(=O)(=O)c1ccc(-c2ncc(C(=O)N(C3CC3)C3CCN(c4noc(C5CC5)n4)CC3)cn2)cc1 [Example 20, 2-(4-Methanesulfonyl-phenyl)-pyrimidine-5-carboxylic acid cyclopropyl-[1-(5-cyclopropyl-[1,2,4]oxadiazol-3-yl)-piperidin-4-yl]-amide] | 92 nM
CCCc1noc(N2CCC(N(C(=O)c3cnc(-n4ccnc4)nc3)C3CC3)CC2)n1 [Example 21, 2-Imidazol-1-yl-pyrimidine-5-carboxylic acid cyclopropyl-[1-(3-propyl-[1,2,4]oxadiazol-5-yl)-piperidin-4-yl]-amide] | 123 nM
CCCc1noc(N2CCC(N(C(=O)c3cnc(-n4ccnc4C)nc3)C3CC3)CC2)n1 [Example 22, 2-(2-Methyl-imidazol-1-yl)-pyrimidine-5-carboxylic acid cyclopropyl-[1-(3-propyl-[1,2,4]oxadiazol-5-yl)-piperidin-4-yl]-amide] | 137 nM
CCCc1noc(N2CCC(N(C(=O)c3cnc(-n4ccnc4CC)nc3)C3CC3)CC2)n1 [Example 23, 2-(2-Ethyl-imidazol-1-yl)-pyrimidine-5-carboxylic acid cyclopropyl-[1-(3-propyl-[1,2,4]oxadiazol-5-yl)-piperidin-4-yl]-amide] | 103 nM
Cc1nccn1-c1ncc(C(=O)N(C2CC2)C2CCN(c3noc(C4CC4)n3)CC2)cn1 [Example 24, 2-(2-Methyl-imidazol-1-yl)-pyrimidine-5-carboxylic acid cyclopropyl-[1-(5-cyclopropyl-[1,2,4]oxadiazol-3-yl)-piperidin-4-yl]-amide] | 83 nM
O=C(c1cnc(-n2ccnc2)nc1)N(C1CC1)C1CCN(c2noc(C3CC3)n2)CC1 [Example 25, 2-Imidazol-1-yl-pyrimidine-5-carboxylic acid cyclopropyl-[1-(5-cyclopropyl-[1,2,4]oxadiazol-3-yl)-piperidin-4-yl]-amide] | 103 nM
CCc1nccn1-c1ncc(C(=O)N(C2CC2)C2CCN(c3noc(C4CC4)n3)CC2)cn1 [Example 26, 2-(2-Ethyl-imidazol-1-yl)-pyrimidine-5-carboxylic acid cyclopropyl-[1-(5-cyclopropyl-[1,2,4]oxadiazol-3-yl)-piperidin-4-yl]-amide] | 156 nM
Cc1nccn1-c1ncc(C(=O)N(C2CC2)C2CCN(c3ncc(C(F)(F)F)cc3F)CC2)cn1 [Example 27, 2-(2-Methyl-imidazol-1-yl)-pyrimidine-5-carboxylic acid cyclopropyl-(3′-fluoro-5′-trifluoromethyl-3,4,5,6-tetrahydro-2H-[1,2′]bipyridinyl-4-yl)-amide] | 6 nM
CC(C)c1noc(N2CCC(N(C(=O)c3cc(-c4ccc(C#N)cc4F)no3)C3CC3)CC2)n1 [Example 28, 3-(4-Cyano-2-fluoro-phenyl)-isoxazole-5-carboxylic acid cyclopropyl-[1-(3-isopropyl-[1,2,4]oxadiazol-5-yl)-piperidin-4-yl]-amide] | 3 nM
CC(C)c1noc(N2CCC(N(C(=O)c3cc(-c4ccc(C#N)cc4F)on3)C3CC3)CC2)n1 [Example 29, 5-(4-Cyano-2-fluoro-phenyl)-isoxazole-3-carboxylic acid cyclopropyl-[1-(3-isopropyl-[1,2,4]oxadiazol-5-yl)-piperidin-4-yl]-amide] | 3 nM
CC(C)(C)c1noc(N2CCC(N(C(=O)c3cc(-c4ccc(C#N)cc4F)on3)C3CC3)CC2)n1 [Example 30, 5-(4-Cyano-2-fluoro-phenyl)-isoxazole-3-carboxylic acid [1-(3-tert-butyl-[1,2,4]oxadiazol-5-yl)-piperidin-4-yl]-cyclopropyl-amide] | 5 nM
CC(C)(C)c1noc(N2CCC(N(C(=O)c3cc(-c4ccc(C#N)cc4F)no3)C3CC3)CC2)n1 [Example 31, 3-(4-Cyano-2-fluoro-phenyl)-isoxazole-5-carboxylic acid [1-(3-tert-butyl-[1,2,4]oxadiazol-5-yl)-piperidin-4-yl]-cyclopropyl-amide] | 6 nM
CC(C)(C)c1noc(N2CCC(N(C(=O)c3cnc(-c4cnco4)cn3)C3CC3)CC2)n1 [Example 32, 5-Oxazol-5-yl-pyrazine-2-carboxylic acid [1-(3-tert-butyl-[1,2,4]oxadiazol-5-yl)-piperidin-4-yl]-cyclopropyl-amide] | 14 nM
CC(C)c1noc(N2CCC(N(C(=O)c3cnc(-c4cnco4)cn3)C3CC3)CC2)n1 [Example 33, 5-Oxazol-5-yl-pyrazine-2-carboxylic acid cyclopropyl-[1-(3-isopropyl-[1,2,4]oxadiazol-5-yl)-piperidin-4-yl]amide] | 25 nM
CCc1cnc(N2CCC(N(C(=O)c3ccc(-c4cnco4)nc3)C3CC3)CC2)nc1 [Example 34, N-Cyclopropyl-N-[1-(5-ethyl-pyrimidin-2-yl)-piperidin-4-yl]-6-oxazol-5-yl-nicotinamide] | 27 nM
CC(C)c1noc(N2CCC(N(C(=O)c3ccc(-c4cnco4)nc3)C3CC3)CC2)n1 [Example 35, N-Cyclopropyl-N-[1-(3-isopropyl-[1,2,4]oxadiazol-5-yl)-piperidin-4-yl]-6-oxazol-5-yl-nicotinamide] | 33 nM
CC(C)(C)c1noc(N2CCC(N(C(=O)c3ccc(-c4cnco4)nc3)C3CC3)CC2)n1 [Example 36, N-[1-(3-tert-Butyl-[1,2,4]oxadiazol-5-yl)-piperidin-4-yl]-N-cyclopropyl-6-oxazol-5-yl-nicotinamide] | 46 nM
CCc1cnc(N2CCC(N(C(=O)c3ccc(-c4cnco4)nc3)C3CC3)CC2)cn1 [Example 37, N-Cyclopropyl-N-[1-(5-ethyl-pyrazin-2-yl)-piperidin-4-yl]-6-oxazol-5-yl-nicotinamide] | 59 nM
CCc1cnc(N2CCC(N(C(=O)c3cnc(-c4cnco4)cn3)C3CC3)CC2)nc1 [Example 38, 5-Oxazol-5-yl-pyrazine-2-carboxylic acid cyclopropyl-[1-(5-ethyl-pyrimidin-2-yl)-piperidin-4-yl]-amide] | 63 nM
CCCc1noc(N2CCC(N(C(=O)c3cnc(-c4cnco4)cn3)C3CC3)CC2)n1 [Example 39, 5-Oxazol-5-yl-pyrazine-2-carboxylic acid cyclopropyl-[1-(3-propyl-[1,2,4]oxadiazol-5-yl)-piperidin-4-yl]-amide] | 67 nM
CCCc1noc(N2CCC(N(C(=O)c3ccc(-c4cnco4)nc3)C3CC3)CC2)n1 [Example 40, N-Cyclopropyl-6-oxazol-5-yl-N-[1-(3-propyl-[1,2,4]oxadiazol-5-yl)-piperidin-4-yl]-nicotinamide] | 89 nM
